Laboratory results published in US10406120B2, “Methods and compositions for treating kidney disorders” (Golden Biotechnology Corporation, priority 2013, dated 2019).

How the values were obtained:
desmin = experiment: FSGS model: podocyte injury, desmin IHC; assay type: in vivo, BALB/c mice; conditions: FSGS mice
Procedure: Experiments described herein were performed on 8-week-old female BALB/c mice. The FSGS mice were injected intravenously with a single dose of adriamycin (0.1 mg/10 g body weight). The mice were given Compound 1 six hours before adriamycin injection by gavage daily till sacrifice. BALB/c mice intraperitoneal injected with normal saline were used as normal controls, while ASLN mice given vehicle (corn oil) by gavage were used as disease controls. Mice were killed at day 7, 14, or 21 after disease induction, and spleen, renal cortical tissue, and blood samples collected and stored appropriately until analysis. […]
For IHC, formalin-fixed and paraffin-embedded renal sections were prepared and incubated with primary antibodies against mouse Desmin (Lab Vision, CA, USA), CD3 (pan-T cell; Serotec, N.C., USA), F4/80 (monocytes/macrophages; Serotec), IL-6 (R&D Systems, MN, USA), NF-κB p65 (Cell Signaling Technology, MA, USA), collagen I, III, and IV (Southern Biotech, AL, USA), or TGF-β1 (Santa Cruz Biotechnology, CA, USA), biotinylated second antibodies (Dako, Glostrup, Denmark), and avidin-biotin-peroxidase complex (Dako). Semi-quantitative evaluation of staining was performed.

[1] = system: NAD(P)H oxidase subunit p47^phox; experiment: FSGS model: Western blot of cytosolic p47^phox in kidney; assay type: in vivo, BALB/c mice; conditions: FSGS mice, day 14 to day 21, vs control FSGS mice
Procedure: (§1) Experiments described herein were performed on 8-week-old female BALB/c mice. The FSGS mice were injected intravenously with a single dose of adriamycin (0.1 mg/10 g body weight). The mice were given Compound 1 six hours before adriamycin injection by gavage daily till sacrifice. BALB/c mice intraperitoneal injected with normal saline were used as normal controls, while ASLN mice given vehicle (corn oil) by gavage were used as disease controls. Mice were killed at day 7, 14, or 21 after disease induction, and spleen, renal cortical tissue, and blood samples collected and stored appropriately until analysis. All animal experiments were performed with the ethical approval of the Institutional Animal Care and Use Committee of The National Defense Medical Center, Taiwan and performed according to the ethical rules in the NIH Guide for the Care and Use of Laboratory Animals.
The preparation of cytoplasmic and nuclear proteins of renal tissues was extracted using the Nuclear Extract Kit (Active Motif, Tokyo, Japan) according to the manufacturer's instructions. Target proteins in the cytoplasmic and/or nuclear fractions of kidney tissue were measured by Western blot analysis using rabbit antibodies against mouse Nrf2, or p47^phox (Santa Cruz). […]

[2] = based on a previous study and empirical use (Chang et al. 2008); cited from earlier work
splenocytes = experiment: AcP-IgAN model: T cell proliferation analysis (thymidine uptake); assay type: in vivo, B cell-deficient mice
Procedure: B cell-deficient mice (B6.129S2-Igh-6tm1Cgn/J) were obtained from the Academia Sinica (Professor John T. Kung, Institute of Molecular Biology), and maintained at the animal center of the National Defense Medical Center, Taipei, Taiwan. AcP-IgAN was induced in the mice by daily injection of purified IgA anti-phosphorylcholine antibodies and pneumococcal C-polysaccharide (PnC) as described previously (Chao, et al., Kidney Int. 70:283-297; 2006). All animal experiments were performed with the approval of the Institutional Animal Care and Use Committee of The National Defense Medical Center, Taiwan, and were consistent with the NIH Guide for the Care and Use of Laboratory Animals.
Splenocytes from the mice were prepared as described as above, then were cultured in triplicate in wells (5×10^5 cells in 200 μl/well) in 96-well flat-bottomed microtiter plates previously coated overnight at 4° C. with 0.25 μg/ml of anti-mouse CD3 antibody (BD Biosciences). After 48 hr, the cultures were pulsed with 1 μCi of 3H-methyl thymidine (Amersham Pharmacia Biotech, NJ), harvested 16 hr later, and the incorporated 3H-methyl thymidine measured using a TopCount (Packard, PerkinElmer, MA).

GPx = experiment: FSGS model: GPx activity in the kidney; assay type: in vivo, BALB/c mice; conditions: FSGS mice, day 7 until day 21, vs control FSGS mice
Procedure: as §1
GPx activity in renal tissues was measured using a commercial Glutathione Peroxidase Assay kit (Cayman, Mich., USA) according to the manufacturer's instructions Enzyme activity was expressed relative to the protein concentration of glomerular homogenates.

## COC1=C(OC)[C@H](O)[C@H](C/C=C(\C)CC/C=C(\C)CCC=C(C)C)[C@@H](C)C1=O [Compound 1, Antroquinonol]
desmin; day 21, compared to normal control mice
  expression of desmin (IHC): mild desmin expression levels
desmin; days 14 and 21, vs control FSGS mice
  expression of desmin (IHC): significantly reduced
[1]
  protein levels of NAD(P)H oxidase subunit p47^phox in kidney (increase in FSGS): abolished
[2]
  effective range: 10-50 mg/kg body weight
splenocytes; AcP-IgAN mice, day 28
  proliferation of CD3^+ T cell in splenocytes (thymidine uptake): near baseline levels of proliferation
splenocytes; day 3, worded as control AcP-IgAN mice relative to AcP-IgAN+Antroq mice
  proliferation of CD3^+ T cell in splenocytes (thymidine uptake): greatly increased proliferation of CD3^+ T cell in splenocytes compared to that of AcP-IgAN+Antroq mice
GPx
  GPx activity in the kidney: recovered GPx activity
